# Counter-ions that a name gives are not always drawn. Like-named read-outs stand apart in the source and are kept apart here.
# What was measured:
# [1] = In vitro logP measurement, octanol/phosphate buffer pH 7.4; assay type: physicochemical; conditions: octanol/phosphate buffer pH 7.4, radiolabeled compound, mean ± SD, n = 8
# Method: In vitro logP measurement: Octanol/water partition coefficient of the radiolabeled compounds were measured at Columbia University, using the method of Wilson et al. (2001), with some modifications. Briefly, 300 to 500 μCi of radioligand in EtOH was added to a separatory funnel containing octanol (20 mL) and phosphate buffer (20 mL, pH 7.4). The mixture was shaken mechanically for 3 minutes and the layers were separated. The octanol layer (15 mL) was transferred to a second separatory funnel containing 15 mL of the phosphate buffer (pH 7.4). The mixture was shaken mechanically for 3 minutes and the layers were separated. This second octanol layer was then partitioned into four test tubes (2 mL each) and the phosphate buffer (2 mL each) added. The test tubes were vortexed for 10 minutes, and then centrifuged for 10 minutes at 1000 rpm to separate the layers. The octanol and aqueous phases (1.0 mL each) were transferred into counting tubes and counted with a gamma counter (Wallac 1480 Wizard 3M Automatic Gamma Counter, Perkin-Elmer, Boston, Mass.). The radioactivity counts were decay-corrected and the partition coefficient calculated as P=counts in octanol/counts in buffer. Eight separate measurements were preformed for each tracer.
# SERT [2] = target: T1, SERT (Rattus norvegicus, UniProt P31652); design: host or cells: rat brain membranes (for ADAM/IDAM); conditions: literature; [^125I] ligands in rat brain membranes; cited from earlier work
# T1 sequence (P31652 whole entry): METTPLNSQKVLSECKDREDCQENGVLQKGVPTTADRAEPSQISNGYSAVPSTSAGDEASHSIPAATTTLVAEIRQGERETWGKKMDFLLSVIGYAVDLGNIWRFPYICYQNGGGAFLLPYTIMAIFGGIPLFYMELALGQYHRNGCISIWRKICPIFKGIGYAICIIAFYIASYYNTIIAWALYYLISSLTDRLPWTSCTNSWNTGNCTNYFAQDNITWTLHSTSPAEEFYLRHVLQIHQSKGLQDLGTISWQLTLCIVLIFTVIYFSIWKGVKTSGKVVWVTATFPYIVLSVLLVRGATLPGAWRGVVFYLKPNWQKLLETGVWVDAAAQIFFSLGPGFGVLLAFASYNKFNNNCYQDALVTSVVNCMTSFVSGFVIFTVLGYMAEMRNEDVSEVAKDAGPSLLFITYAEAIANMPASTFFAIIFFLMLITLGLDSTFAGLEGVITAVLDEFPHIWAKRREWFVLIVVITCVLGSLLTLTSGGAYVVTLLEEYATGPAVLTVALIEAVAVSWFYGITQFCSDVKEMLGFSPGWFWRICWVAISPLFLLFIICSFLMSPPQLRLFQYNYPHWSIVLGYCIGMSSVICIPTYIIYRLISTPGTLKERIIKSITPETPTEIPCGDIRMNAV
# [3] = humans, literature; cited from earlier work
# [4] = target: T2, dopamine transporter (DAT) (Homo sapiens, UniProt Q01959); assay: In vitro binding affinity for DAT, radioligand [^3H]GBR12935 (Table 1); design: species or system rat or human (cloned)
# T2 construct: host or cells: either rat cortical tissue or cells expressing the cloned human transporter
# T2 sequence (Q01959 whole entry, species assumed): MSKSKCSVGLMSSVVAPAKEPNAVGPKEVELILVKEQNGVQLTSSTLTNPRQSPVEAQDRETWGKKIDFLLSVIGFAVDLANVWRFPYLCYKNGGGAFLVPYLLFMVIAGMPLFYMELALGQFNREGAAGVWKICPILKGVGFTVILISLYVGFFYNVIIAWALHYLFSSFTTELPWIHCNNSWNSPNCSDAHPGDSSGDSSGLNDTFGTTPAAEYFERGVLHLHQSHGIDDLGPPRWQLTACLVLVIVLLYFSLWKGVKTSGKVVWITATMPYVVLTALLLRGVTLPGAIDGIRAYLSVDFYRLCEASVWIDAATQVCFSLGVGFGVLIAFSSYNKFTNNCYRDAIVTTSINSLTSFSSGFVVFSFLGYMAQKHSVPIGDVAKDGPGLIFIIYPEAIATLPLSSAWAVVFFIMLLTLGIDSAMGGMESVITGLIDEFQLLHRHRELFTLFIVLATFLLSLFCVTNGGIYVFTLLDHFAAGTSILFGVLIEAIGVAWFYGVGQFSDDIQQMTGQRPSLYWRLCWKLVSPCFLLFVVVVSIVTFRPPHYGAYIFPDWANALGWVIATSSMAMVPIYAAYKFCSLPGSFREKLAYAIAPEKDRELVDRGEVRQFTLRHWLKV
# Method: (§1) Selected compounds were assayed in vitro for their binding affinity for the dopamine transporter (DAT), serotonin transporter (SERT), and norepinephrine transporter (NET) using membranes prepared from either the rat cortical tissues or cells expressed with cloned-human transporters and radioligands. Radioligands used were [^3H]paroxetine (SERT), [^3H]nisoxetine (NET), and [^3H]GBR12935 (DAT).
# [5] = target: T3, serotonin transporter (SERT) (Rattus norvegicus, UniProt P31652); assay: In vitro binding affinity for SERT, radioligand [^3H]paroxetine (Table 1); design: species or system rat or human (cloned)
# T3 construct: membranes prepared from either the rat cortical tissues or cells expressed with cloned-human transporters; from tissue; host or cells: rat cortical tissue membranes (inferred; the alternative is cells expressing cloned human SERT)
# T3 sequence (P31652 whole entry): as the sequence (P31652 whole entry) above
# Method: as §1
# [6] = target: T4, norepinephrine transporter (NET) (Homo sapiens, UniProt P23975); assay: In vitro binding affinity for NET, radioligand [^3H]nisoxetine (Table 1); design: species or system rat or human (cloned)
# T4 construct: host or cells: either rat cortical tissue or cells expressing the cloned human transporter
# T4 sequence (P23975 whole entry, species assumed): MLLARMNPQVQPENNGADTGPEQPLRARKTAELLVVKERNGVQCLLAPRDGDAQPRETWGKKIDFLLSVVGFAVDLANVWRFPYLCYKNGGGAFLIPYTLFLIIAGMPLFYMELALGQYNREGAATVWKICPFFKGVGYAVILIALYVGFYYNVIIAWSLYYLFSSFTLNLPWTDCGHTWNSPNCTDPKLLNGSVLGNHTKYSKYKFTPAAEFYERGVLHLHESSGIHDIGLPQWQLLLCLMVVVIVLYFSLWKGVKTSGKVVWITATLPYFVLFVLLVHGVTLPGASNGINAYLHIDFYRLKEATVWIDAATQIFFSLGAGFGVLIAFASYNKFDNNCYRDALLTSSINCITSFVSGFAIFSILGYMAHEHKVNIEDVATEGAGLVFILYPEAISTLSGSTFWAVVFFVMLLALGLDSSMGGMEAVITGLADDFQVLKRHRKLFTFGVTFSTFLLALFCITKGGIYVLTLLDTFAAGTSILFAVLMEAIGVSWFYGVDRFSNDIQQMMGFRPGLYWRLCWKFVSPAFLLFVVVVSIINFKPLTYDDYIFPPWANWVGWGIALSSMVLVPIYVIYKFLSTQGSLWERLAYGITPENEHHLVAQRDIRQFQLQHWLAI
# Method: as §1
# SERT [7] = target: T1, SERT; assay: In vitro binding assay on rat frontal cortex homogenates using [^3H]paroxetine; design: from tissue; host or cells: frontal cortex of male Sprague-Dawley rats, washed membrane homogenate; conditions: mean ± SD, n = 3
# Method: In vitro binding assays: Measurement of the inhibition constants (Ki) of the labeled compounds in FIG. 1 on rat frontal cortex homogenates were performed at Columbia University using [^3H]paroxetine, as previously described (Laruelle et al., 1988b). Briefly, male Sprague-Dawley rats (250-300 g) were killed by decapitation. Dissection of the brain was carried out on ice and samples of the frontal cortex were stored at −40° C. until binding assay. After thawing, samples were homogenized in 10 volumes of buffer (50 mM Tris-HCl, pH 7.4, 120 mM NaCl and 5 mM KCl). The homogenates were centrifuged at 10,000 rpm for 10 minutes. Pellets were resuspended in 10 volumes of buffer, incubated at 37° C. for 10 minutes, and centrifuged again. This procedure was then repeated a third time.
# For the binding assay, membranes were suspended in buffer at a final protein concentration of 5 mg/mL. Unlabelled drugs were dissolved in dimethyl sulfoxide (DMSO) in borosilicate glass tubes to yield a 1 mM stock solution, from which subsequent serial dilutions were performed with the buffer. Aliquots of tissue preparation were incubated with [^3H]paroxetine (0.1 nM) at 22° C. or 37° C. for 60 minutes in the absence or presence of unlabelled drug (10^−5 to 10^−12 M) to yield a final volume of 0.5 mL (borosilicate glass tubes). Nonspecific binding was defined by incubation with 10 μM of citalopram. Each concentration was performed in triplicates. After incubation, the mixture was rapidly filtered through Whatman GF/B glass fiber filters using a 48-channel cell harvester (Brandel, Gaithersburg, Md.). The filters were washed 3 times with 4 mL each of ice cold buffer, placed in vials with 4 mL Ultima Gold solvent (Packard Instrument Co., Downers Grove, Ill.), and counted the following day for radioactivity in a liquid scintillation counter (Tricarb 1500, Packard Instrument Co., Downers Grove, Ill.). This experiment was performed three times at 22° C. and 37° C., on three different days. Ki values were derived using GraphPad Prism software (San Diego, Calif.).
# [8] = literature (Laruelle et al., 1994a); cited from earlier work
# SERT [9] = conditions: literature; cited from earlier work
# [10] = 22° C., read-out: Ki for SERT at 22° C.
# [11] = 37° C., read-out: Ki for SERT at 37° C.
smiles,measurement,setting,value
"CN(C)Cc1ccccc1Sc1ccc(CF)cc1N (as salt: tartrate) [AFM, 2-(2-(Dimethylaminomethyl)phenylthio)-5-fluoromethylphenylamine]",melting point,,142 to 143 °C
"CSc1ccc(C2CN3CCCC3c3ccccc32)cc1 (single isomer, unassigned; (+)) [McN 5652, (+)-6β-(4-methylthiophenyl)-1,2,3,5,6α,10β-hexahydropyrrolo[2,1-a]isoquinoline]",logP,[1],2.51 ± 0.03
"CNCc1ccccc1Sc1ccc(F)cc1N (as salt: tartrate) [Example 41, 5-Fluoro-2-(2-(methylaminomethyl)phenylthio)phenylamine]",melting point,,106 to 108 °C
CN(C)Cc1ccccc1Sc1ccc(I)cc1CO [[^125I]IDAM],Ki,SERT [2],0.25 nM
CN(C)Cc1ccccc1Sc1ccc([125I])cc1N [[^125I]ADAM],Ki,SERT [2],0.15 nM
COc1c(O[11CH3])cccc1[C@H](O)C1CCN(CCc2ccc(F)cc2)CC1 [[^11C]MDL 100907],VT CER (nonspecific distribution volume),[3],18 ± 4 mL/g
"CN(C)Cc1ccccc1Sc1ccc(I)cc1N [ADAM, 2-{2-[(dimethylamino)methyl]phenylthio}-5-iodophenylamine]",Ki,[4],> 10000 nM
same,Ki,[5],0.32 nM
same,Ki,SERT [2],0.15 nM
same,Ki,[6],1350 nM
same,logP,[1],3.31 ± 0.13
same,Ki,SERT [7]; [10],0.32 ± 0.11 nM
same,Ki,SERT [7]; [11],0.4 ± 0.16 nM
"COC(=O)C1C(c2ccc([123I])cc2)CC2CCC1N2C (stereo not drawn) [[^123I]β-CIT, [^123I]2β-carbomethoxy-3β-(4-iodophenyl)tropane]",VT CER (nonspecific distribution volume),[3],28 ± 3 mL/g
same,Plasma free fraction,[8],40±5%
"CN(C)Cc1ccccc1Sc1ccc(C#N)cc1N [DASB, 3-amino-4-{2-[(dimethylamino)methyl]phenylthio}benzonitrile]",Ki,[4],> 10000 nM
same,Ki,[5]; read-out: Ki SERT,0.87 nM
same,logP,[1],2.38 ± 0.03
same,Ki,SERT [7]; [10],0.87 ± 0.41 nM
same,Ki,SERT [7]; [11],1.77 ± 0.25 nM
"CN(C)Cc1ccccc1Sc1ccc(I)cc1CO [[^123I]IDAM, 5-iodo-2-((2-((dimethylamino)methyl)phenyl)thio)benzyl alcohol]",Kd,SERT [9],0.25 nM
"CN(C)Cc1ccccc1Sc1ccc(F)cc1N (as salt: tartrate) [AFA, 2-(2-(Dimethylaminomethyl)phenylthio)-5-fluorophenylamine]",melting point,,158 to 159 °C
"CN(C)Cc1ccccc1Sc1ccc(Br)cc1N [DAPA, 5-bromo-2-{2[(dimethylamino)methyl]phenylthio}phenylamine]",logP,[1],3.06 ± 0.12
same,Ki,SERT [7]; [10],0.38 ± 0.24 nM
same,Ki,SERT [7]; [11],0.33 ± 0.13 nM
"CN(C)Cc1ccccc1Sc1ccc(CF)cc1N [AFM, 2-(2-(Dimethylaminomethyl)phenylthio)-5-fluoromethylphenylamine]",Ki,[4],> 10000 nM
same,Ki,[5],0.23 nM
same,Ki,[6],664 nM
same,logP,[1],2.44 ± 0.03
same,Ki,SERT [7]; [10],0.23 ± 0.04 nM
same,Ki,SERT [7]; [11],0.42 ± 0.12 nM
"CNCc1ccccc1Sc1ccc(C)cc1N (as salt: tartrate) [Example 39, 5-Methyl-2-(2-(methylaminomethyl)phenylthio)phenylamine]",melting point,,164 to 166 °C

# Reference: patent US20110097274A1, “Carbon-11 and fluorine-18 labeled radioligands for positron emission tomography (PET) imaging for the brain serotonin transporters” (priority 2002, published 2011)
